Experimental data reported in doi:10.64898/2025.12.21.695763v2 (biorxiv, 2026).

Molecular target: T1, Mth α-subunit (NrdE) of Class Ib ribonucleotide reductase (Mycolicibacterium thermoresistibile, UniProt G7CEK2)
T1 sequence (G7CEK2 1-693): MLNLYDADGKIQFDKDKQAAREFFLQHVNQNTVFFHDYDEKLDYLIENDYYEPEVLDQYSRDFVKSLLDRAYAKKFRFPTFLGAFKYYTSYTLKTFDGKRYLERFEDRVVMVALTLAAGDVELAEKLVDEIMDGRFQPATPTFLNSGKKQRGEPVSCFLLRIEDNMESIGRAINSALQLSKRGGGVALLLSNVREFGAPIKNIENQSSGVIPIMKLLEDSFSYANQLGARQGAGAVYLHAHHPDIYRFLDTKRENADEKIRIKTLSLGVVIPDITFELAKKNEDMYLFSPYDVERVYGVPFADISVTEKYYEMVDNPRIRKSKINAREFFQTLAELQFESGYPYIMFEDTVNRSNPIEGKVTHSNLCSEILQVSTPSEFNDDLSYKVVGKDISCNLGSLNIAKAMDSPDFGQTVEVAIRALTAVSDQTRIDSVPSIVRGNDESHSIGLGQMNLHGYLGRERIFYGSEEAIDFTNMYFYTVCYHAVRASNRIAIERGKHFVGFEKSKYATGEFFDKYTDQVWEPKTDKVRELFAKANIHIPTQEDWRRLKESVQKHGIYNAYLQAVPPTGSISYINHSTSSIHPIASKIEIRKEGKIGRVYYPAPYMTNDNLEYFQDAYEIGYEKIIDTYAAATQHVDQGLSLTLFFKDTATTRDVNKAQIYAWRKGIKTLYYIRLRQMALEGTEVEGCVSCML
Experiment: isothermal titration calorimetry
Assay type: binding

Row | Structure (SMILES) | Kd
1 | Cc1cn([C@@H]2O[C@H](COP(=O)(O)OP(=O)(O)OP(=O)(O)O)[C@@H](O)[C@H]2O)c(=O)[nH]c1=O [TTP] | 0.64 µM
2 | Nc1ncnc2c1ncn2[C@H]1C[C@H](O)[C@@H](COP(=O)(O)OP(=O)(O)OP(=O)(O)O)O1 [dATP] | 1.1 µM

Further lines, results first:

Row | Kd | Structure (SMILES)
3 | 6.6 µM | Nc1ccn([C@H]2C[C@H](O)[C@@H](COP(=O)(O)OP(=O)(O)OP(=O)(O)O)O2)c(=O)n1 [dCTP]
4 | 4.6 µM | Nc1nc2c(ncn2[C@H]2C[C@H](O)[C@@H](COP(=O)(O)OP(=O)(O)OP(=O)(O)O)O2)c(=O)[nH]1 [dGTP]
5 | 3.3 µM | Cc1cn([C@H]2C[C@H](O)[C@@H](COP(=O)(O)OP(=O)(O)OP(=O)(O)O)O2)c(=O)[nH]c1=O [dTTP]
